Assay [1] concerns rats with myocardial infarction induced by coronary artery ligation. Briefly: Myocardial infarction rate (TTC staining) after coronary artery ligation. Particulars: high-dose group compared with aspirin group; FIG. 11 heart biopsy. Type of assay: in vivo, SD rats. How it is done:
Clean male SD rats were taken and placed in groups randomly according to the body-weight, including pseudo operation group (distilled water), model group (distilled water), aspirin group, (S)-salvianolic acid T low-dose group, (S)-salvianolic acid T high-dose group, and there were 10 rats in each group. Each group of rats were administrated by gastric administration once a day, continuously for 10 days. […] Recording standard II lead ECG at 5 minutes before surgery, 0 s, 1 min, 5 min, 15 min, 1 h, 4 h after the ligation, to investigate the changes of J point of ECG. Taking out the heart immediately after the end of the experiment, washing away the blood with normal saline, cutting off the atrium and the bottom of the blood vessels, weighing the mass of the ventricle, cutting the ventricle into 5 pieces on average along the atrioventricular groove and putting them into 1% (w/v) TTC solution, dyeing in the water bath at a constant temperature of 37 °C for 5 min, taking digital photos firstly after taking them out, then separating the unstained parts (that is, the infarct parts) and weighing to calculate the percentage of them in the mass of total ventricular (myocardial infarction percentage), and performing t test with ischemia model group. The formula for calculating the infarct percentage is as follows: Infarct percentage (%)=(the mass of pale areas/the mass of the ventricle)×100%

The test system of assay [2] is L929 cells induced by TGF-β1. Description: Inhibition of L929 cell proliferation induced by TGF-β1 (MTT). Format: cell-based. Particulars: 2 μg/L TGF-β1, 72 h, MTT method. The protocol: L929 cells with a cell population of 5×10^7/L adjusted by DMEM culture solution containing 10% fetal bovine serum were seeded into 96 well plate, cultured for 24 h. Supplementing the same culture medium containing 2 μg/L TGF-β1 and (S)/(R)-salvianolic acid T of different concentrations. There were 6 multiple pores in each group, final concentration of (S)/(R)-salvianolic acid T was set as 0, 1, 3, 10, 20, 40, 80, 150 μmol/L. Removing medium after being cultured for 72 h, assaying the cell activity by MTT method.
Background: Formazan colour is commonly taken as a measure of viable cells.

Assay [3] in a line: DPPH free-radical scavenging reaction. How it is done: Absorbance of the reaction solution was measured at 517 nm. In this study, vitamin C was regarded as a positive control. Free-radical scavenging rate was calculated in accordance with the following equation: Free-radical scavenging rate (%)=[1−Asample/Acontrol)/Acontrol]×100% Wherein, the Asample means the absorbance of the tested samples, and Acontrol means the absorbance of blank control.
In general terms: DPPH is a stable violet radical that fades when it is reduced.

Assay [4] is described as follows: Determination of reducing capacity (potassium ferricyanide / ferric chloride, absorbance at 700 nm). How it is done: 0.5 ml of 200 mM phosphate buffer (pH6.8) containing different concentrations of the (S)/(R)-salvianolic acid T and 0.5 ml of 1.0% (w/v) potassium ferricyanide solution were sucked respectively and cooled on an ice bath after being heated on a water bath (50[…]) for 20 min. 0.5 ml of 10% trichloroacetic acid solution was added and centrifuged at […] for 10 min. 1.0 ml of the resulting supernatant was taken, into which 1.0 ml of distilled water and 0.2 ml of 0.1% (w/v) ferric chloride solution were added, stood still for 10 min and the absorbance was measured at 700 nm. Meanwhile, the blank experiment was carried out. Vitamin C is a strongly reducing substance, acting as positive control in this study. Reducing capacity of the sample is represented by subtracting the absorbance of the blank control from the absorbance of the tested sample. Thus, it means the higher absorbance, the stronger reducing capacity.

The test system of assay [5] is mice pulmonary fibrosis induced by bleomycin. Briefly: Anti-pulmonary fibrosis experiment in mice induced by bleomycin. Type of assay: in vivo, Kunming mice. The following applies: 3 weeks. How it is done: Dividing the 40 mice into 4 groups: □ normal control group, given nasal dripping of normal saline, drenched with normal saline; □ model control group:given nasal dripping of bleomycin, drenched with normal saline; □(S)-salvianolic acid T group (16 mg/kg): given nasal dripping of bleomycin, drenched with (S)-salvianolic acid T solution; □(R)-salvianolic acid T group (16 mg/kg): given nasal dripping of bleomycin, drenched with (R)-salvianolic acid T solution; 10 mice in each group.
On the first day of the experiment, the mice were anesthetized with chloral hydrate, each mouse was given disposable nasal dripping of 50 μg bleomycin to establish the pulmonary fibrosis model. On the second day of the experiment, two treatment groups were drenched with (S)/(R)-salvianolic acid T, the model group and the normal group were drenched with equal volume of normal saline, once each day, 3 consecutive weeks. On the 21th day of the experiment, serum was separated from the blood collected from the orbital vein to detect TGF-β1, the mice were killed to take lungs, ground with double distilled water (the ratio of lungs and double distilled water was 1:5 (w/v)) into tissue homogenate, centrifuged to detect the MDA, superoxide dismutase (SOD), catalase (CAT), peroxidase (POD) in the tissues.

The mark [6] stands for this setting: compared with positive control vitamin C.
Where [7] appears, read: 16 mg/kg, lung tissue homogenate.

For orientation: IC50 means the concentration that gives 50% inhibition. Lower therefore signals higher potency.

With `O=C(/C=C/c1ccc(O)c(O)c1/C(=C\c1ccc(O)c(O)c1)C(=O)O)O[C@H](Cc1ccc(O)c(O)c1)C(=O)O` [(R)-salvianolic acid T], the “effect on preventing acute myocardial infarction induced by coronary artery ligation” value in assay [1] is on record as “equal effect”. The same compound returned an IC50 in assay [2] of 26.9 µM. In addition, the “free-radical scavenging compared with vitamin C” value in assay [3] (setting [6]) is recorded as “much higher free-radical scavenging than that of the vitamin C”. Moreover, the Free-radical scavenging rate in assay [3] (sample 0.625 μg/ml, 100 μM DPPH, 20 min, 25° C.) is given as 10.51 ± 0.73%; in assay [3] (sample 1.25 μg/ml), 28.15 ± 2.47%; in assay [3] (sample 2.5 μg/ml) it was 43.41 ± 1.85%; in assay [3] (sample 5 μg/ml), 85.59 ± 8.75%; in assay [3] (sample 10 μg/ml), 99.47 ± 5.14%. Besides, the “reducing capacity compared with vitamin C” value in assay [4] (setting [6]) is “much stronger than that of vitamin C”. In addition, the “reducing capacity (absorbance at 700 nm minus blank control)” value in assay [4] (sample 3.125 μg/ml) is given as 0.152 ± 0.034; in assay [4] (sample 6.25 μg/ml), 0.212 ± 0.009; in assay [4] (sample 12.5 μg/ml) it was 0.042 ± 0.011; in assay [4] (sample 25 μg/ml) it was 0.761 ± 0.018; in assay [4] (sample 50 μg/ml), 1.561 ± 0.026. The “Serum TGF-β1” value in assay [5] (16 mg/kg drenched once each day, day 21) worked out at 254 ± 29 ng/L. Besides, the CAT in assay [5] (setting [7]) turned out to be 23.1 ± 2.9 U/g. The compound further gave an MDA in assay [5] (setting [7]) of 311 ± 29 µg/g. This compound also displayed a POD in assay [5] (setting [7]) of 16.4 ± 1.9 U/g. The compound also yielded an SOD in assay [5] (setting [7]) of 52.2 ± 5.1 U/g. The “Tissue TGF-β1” value in assay [5] (setting [7]) was found to be 562 ± 69 pg/g.
